Reference: the supplement of paper PMC10307832

How the values were obtained:
Experiment in all cases: relative viability (nuclei count vs DMSO), 5 days (fraction); higher = more cells survive
Ispinesib + Dasatinib = compound: Cc1ccc(C(=O)N(CCCN)[C@@H](c2nc3cc(Cl)ccc3c(=O)n2Cc2ccccc2)C(C)C)cc1 [Ispinesib] + Cc1nc(Nc2ncc(C(=O)Nc3c(C)cccc3Cl)s2)cc(N2CCN(CCO)CC2)n1 [Dasatinib] (partner 0.075 µM)
Outline: (§1)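 Cells from lung cancer lines were seeded into 1536-well plates and, one day later, dosed by pin tool. Treatments were either a single drug or a fixed dose of an anchor drug with five library-drug doses (not always all listed) in √10 steps. After 5 days, nuclei were stained in a one-step fixation (final 0.05% Triton X-100, 1% formaldehyde, 1 ug/ml Hoechst) and counted on 4× images, and relative viability is the treated-to-vehicle nuclei ratio, as the median of duplicate plates.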

Linsitinib + Olaparib = compound: C[C@]1(O)C[C@@H](c2nc(-c3ccc4ccc(-c5ccccc5)nc4c3)c3c(N)nccn32)C1 [Linsitinib] + O=C(c1cc(Cc2n[nH]c(=O)c3ccccc23)ccc1F)N1CCN(C(=O)C2CC2)CC1 [Olaparib] (partner 8 µM)
Outline: as §1

Linsitinib + Tozasertib = compound: C[C@]1(O)C[C@@H](c2nc(-c3ccc4ccc(-c5ccccc5)nc4c3)c3c(N)nccn32)C1 [Linsitinib] + Cc1cc(Nc2cc(N3CCN(C)CC3)nc(Sc3ccc(NC(=O)C4CC4)cc3)n2)n[nH]1 [Tozasertib] (partner 0.1 µM)
Outline: as §1

Ispinesib + Luminespib = compound: Cc1ccc(C(=O)N(CCCN)[C@@H](c2nc3cc(Cl)ccc3c(=O)n2Cc2ccccc2)C(C)C)cc1 [Ispinesib] + CCNC(=O)c1noc(-c2cc(C(C)C)c(O)cc2O)c1-c1ccc(CN2CCOCC2)cc1 [Luminespib] (partner 0.01 µM)
Outline: as §1

Row | Cell Line | relative viability (Ispinesib + Dasatinib; first compound 0.001 µM) | relative viability (Ispinesib + Dasatinib; first compound 0.003162 µM) | relative viability (Ispinesib + Dasatinib; first compound 0.01 µM) | relative viability (Ispinesib + Dasatinib; first compound 0.03162 µM) | relative viability (Ispinesib + Dasatinib; first compound 0.1 µM) | relative viability (Linsitinib + Olaparib; first compound 0.01 µM) | relative viability (Linsitinib + Olaparib; first compound 0.03162 µM) | relative viability (Linsitinib + Olaparib; first compound 0.1 µM) | relative viability (Linsitinib + Olaparib; first compound 0.3162 µM) | relative viability (Linsitinib + Olaparib; first compound 1 µM) | relative viability (Linsitinib + Tozasertib; first compound 0.01 µM) | relative viability (Linsitinib + Tozasertib; first compound 0.03162 µM) | relative viability (Linsitinib + Tozasertib; first compound 0.1 µM) | relative viability (Linsitinib + Tozasertib; first compound 1 µM) | relative viability (Ispinesib + Luminespib; first compound 0.001 µM) | relative viability (Ispinesib + Luminespib; first compound 0.003162 µM) | relative viability (Ispinesib + Luminespib; first compound 0.01 µM) | relative viability (Ispinesib + Luminespib; first compound 0.03162 µM) | relative viability (Ispinesib + Luminespib; first compound 0.1 µM) | relative viability (Linsitinib + Tozasertib; first compound 0.3162 µM)
1 | HCC-15 | 0.711 | 0.662 | 0.604 | 0.371 | 0.21 | 0.697 | 0.938 | 0.759 | 0.364 | 0.655 | 0.389 | 0.424 | 0.404 | 0.319 | 0.286 | 0.322 | 0.459 | 0.229 | 0.227 | –
2 | ABC-1 | 0.569 | 0.803 | 0.523 | 0.294 | 0.288 | 0.859 | 1.04 | 0.785 | 1.09 | 0.626 | 0.18 | 0.164 | 0.145 | 0.171 | – | 0.598 | 0.613 | 0.369 | 0.469 | 0.153
3 | EPLC-272H | 0.407 | 0.354 | 0.32 | 0.172 | 0.182 | 1.42 | 0.694 | 0.841 | 0.469 | 0.479 | 0.358 | 0.249 | – | 0.222 | 0.215 | 0.326 | 0.25 | 0.196 | 0.234 | –
4 | NCI-H2009 | 0.264 | 0.325 | 0.271 | 0.142 | 0.144 | 0.652 | 0.672 | 0.744 | 0.533 | 0.695 | 0.72 | 0.63 | 0.743 | 0.629 | 1.12 | 1.13 | 1.19 | 0.769 | 0.251 | –
5 | NCI-H661 | 0.999 | 0.982 | 0.921 | 0.353 | 0.251 | 0.665 | 0.666 | 0.751 | 0.749 | 0.744 | 0.361 | 0.383 | 0.335 | 0.368 | 0.926 | 0.913 | 0.921 | 0.586 | 0.224 | 0.308
6 | NCI-H520 | 0.164 | 0.229 | 0.178 | 0.152 | 0.198 | 0.349 | 0.395 | 0.344 | – | 0.346 | 0.426 | 0.39 | 0.494 | 0.408 | 0.24 | 0.17 | 0.207 | 0.206 | 0.204 | –
7 | NCI-H2405 | 0.208 | 0.223 | 0.656 | 0.184 | 0.247 | 0.881 | 0.879 | 0.886 | 0.705 | 0.699 | 0.726 | 0.755 | 0.729 | 0.497 | 0.651 | 0.733 | 0.677 | 0.637 | 0.52 | 0.666
8 | LCLC-97TM1 | 0.86 | 0.825 | 1.03 | 0.631 | 0.221 | 0.504 | 0.548 | 0.353 | 0.257 | 0.437 | 0.193 | 0.29 | 0.174 | 0.257 | 0.781 | 0.765 | 0.886 | 0.807 | 0.487 | 0.159
9 | NCI-H727 | 0.536 | 0.221 | 0.434 | 0.472 | 0.388 | 0.694 | 0.773 | 0.747 | 0.449 | 0.601 | 0.643 | 0.67 | 0.689 | 0.523 | 0.244 | 0.284 | 0.349 | 0.0037 | 0.308 | 0.623
10 | NCI-H2342 | 0.284 | 0.305 | 0.328 | 0.284 | 0.27 | 0.532 | 0.565 | 0.481 | 0.438 | 0.407 | 0.554 | 0.54 | 0.516 | 0.412 | 0.746 | 0.768 | 0.698 | 0.703 | 0.592 | 0.651
11 | NCI-H2228 | 0.557 | 0.522 | 0.665 | 0.211 | 0.2 | 0.763 | 0.601 | 0.735 | 0.379 | 0.477 | 0.273 | 0.308 | 0.272 | 0.199 | 0.121 | 0.14 | 0.228 | 0.127 | 0.159 | 0.296
12 | LK-2 | 0.227 | 0.331 | 0.299 | 0.26 | 0.199 | 0.63 | 0.721 | 0.683 | 0.415 | 0.389 | 0.179 | 0.173 | 0.172 | 0.177 | 0.186 | 0.174 | 0.226 | 0.224 | 0.202 | 0.18
13 | PC-3 [JPC-3] | 1.11 | 1.06 | 1.14 | 0.868 | 0.578 | 1.16 | 1.1 | 1.2 | 1.04 | 1.02 | 0.87 | 0.911 | 0.904 | 0.793 | 0.716 | 0.853 | 0.75 | 0.748 | 0.548 | 0.777
14 | NCI-H596 | 0.573 | 0.589 | 0.62 | 0.641 | 0.334 | 0.736 | 0.614 | 0.677 | 0.66 | 0.604 | 0.889 | 0.948 | 0.822 | 0.812 | 1.01 | 0.954 | 1.07 | 1.06 | 0.609 | 0.724
15 | NCI-H460 | 0.557 | 0.619 | 0.573 | 0.323 | 0.0386 | 0.423 | 0.273 | 0.421 | – | 0.332 | 0.476 | 0.381 | 0.508 | 0.367 | 0.022 | 0.0333 | 0.0413 | 0.0267 | 0.0268 | 0.328
16 | NCI-H647 | 0.176 | 0.173 | 0.122 | 0.0516 | 0.0877 | 0.472 | 0.509 | 0.735 | 0.442 | 0.48 | 0.342 | 0.262 | 0.319 | 0.217 | 0.172 | 0.28 | 0.233 | 0.229 | 0.151 | –
